Where two headings read alike, the source gives them in different places.
Key:
[1] = Whole plasma pharmacokinetics of benznidazole in mice (HPLC); assay type: in vivo, mouse; conditions: for i.p. bioavailability (from AUC0-∞): 65 mg kg-1 i.p.; for half-life / Tmax: mouse; for Tmax: read-out: time of peak plasma concentration (converted)
Text: (§1) Br. J. Cancer (1984), 50, 291-303 Preclinical pharmacokinetics of benznidazole P. Workman', R.A.S. White2, M.I. Walton', L.N. Owen2* & P.R. Twentyman' 1MRC Clinical Oncology and Radiotherapeutics Unit, MRC Centre, Hills Road, Cambridge CB2 2QH, and 2Department of Clinical Veterinary Medicine, University of Cambridge, Madingley Road, Cambridge CB3 OES, UK. […] We have investigated the detailed pharmacokinetics of benznidazole in mice, dogs and sheep to provide a data base for the estimation of doses required for chemosensitization in man. Pharmacokinetic behaviour was linear except at high doses in mice. Absorption was fairly rapid and bioavailability was complete following both i.p. administration in mice and oral administration in dogs. Elimination t4 values were longer than for MISO, being 90 min in mice, 4-5 h in sheep and 9-11 h in dogs. At doses giving linear kinetics, peak whole plasma concentrations per administered mgkg-1 were 0.75 jigml-1 for the i.p. route in mice and 1.8jugmlP' for the oral route in dogs. Though between 39 and 59% of plasma benznidazole was bound to protein, tissue penetration was generally good. Tissue/whole plasma ratios ranged from 59-99% for transplantable mouse tumours and from 14-70% for spontaneous dog neoplasms. Nervous tissue penetration was similar to that in tumours: brain/whole plasma ratios averaged between 61 and 76% in mice and 42% in dogs, while peripheral nerve/whole plasma ratios in dogs averaged 74%. Mean liver/whole plasma ratios were 42% and 71% in BALB/c and C3H/He mouse strains respectively. Only -5% of the administered dose was excreted unchanged in the urine, indicating the likelihood of extensive metabolism. […] Enhancement of CCNU response is likely to require circulating benznidazole concentrations of 10-30 pgml-1 and we predict that these will be obtained with oral doses of 6-20 mgkg- 1 in man. […] This enhancement, or chemosensitization, is usually greater than that seen in dose-limiting normal tissues, resulting in an improved therapeutic index. Because of the relatively high doses of MISO usually required for chemosensitization in mice (see above refs), and also because of its neurotoxicity in man (Dische et al., 1977), we have been interested in finding an improved chemosensitizer. […] The lipophilic ana- logue benznidazole (N-benzyl-(2-nitroimidazolyl) acetamide, Ro 07-1051; Radanil; Roche), the structure of which is shown in Figure 1, was selected for detailed study because of its ability to *Present address: Animal Health Trust, Small Animals Centre, Lanwades Park, Kennett, Newmarket, Suffolk CB8 7PN, UK. Correspondence: P. Workman. […] These findings have been confirmed independently by Siemann et al. (1983). Although benznidazole is used quite widely in South America to treat patients with the trypanosomal infection Chagas' disease or with mucotaneous Leishmaniasis (Barclay et al., 1978; Cerisola et al., 1978; Coura et al., 1978; Fava et al., 1978), apart from our preliminary studies (White et al., 1982) the only published data on its pharmaco- kinetics are for human plasma concentrations measured by polarography (Raaflub & Ziegler, 1979; Raaflub, 1980). Here we describe the pharmacokinetics of benznidazole in the mouse, sheep and dog, as determined by high-performance liquid chromatography (HPLC). […] The Macmillan Press Ltd., 1984 292 P. WORKMAN et al. particularly on plasma and tumour concentrations, have been used as a basis for the estimation of the benznidazole doses required in a Phase I trial of benznidazole plus CCNU, at present ongoing in our Unit. Materials and methods Animals and tumours Adult inbred male BALB/c mice were obtained from OLAC (Southern) Ltd. (Bicester, UK) and adult inbred C3H/He mice of both sexes from OLAC and our own breeding colony. Mice were housed in plastic cages on sawdust bedding made from soft white woods, and allowed laboratory chow and water ad lib. They were used at 20-35 g body wt.

[2] = Penetration into EMT6 and KHT mouse tumours; assay type: in vivo; conditions: for steady-state concentration in tumour: multiple dose schedule
Text: as §1

[3] = Penetration into whole brain of BALB/c mice bearing EMT6 tumours; assay type: in vivo, mouse; conditions: for brain/whole plasma ratio (% ± s.e.) / brain/whole plasma ratio (s.e., n=5): 650 mg kg-1 i.p.; for tumour/brain ratio (% + s.e.): EMT6, 650 mg kg-1 i.p.; for brain/whole plasma ratio (s.e., n=5): experiment b; for Kp: male, BALB/c, mouse, whole brain / whole plasma
Text: as §1

[4] = mice, 78 mg kg-1 i.p., discussion summary
[5] = EMT6 flank tumour, BALB/c, 45 min after 650 mg kg-1 i.p.

SMILES: O=C(Cn1ccnc1[N+](=O)[O-])NCc1ccccc1 [benznidazole, N-benzyl-(2-nitroimidazolyl) acetamide]
- peak whole plasma concentration (+2 s.e.) ([1]; BALB/c mice, 26 mg kg-1 i.p.): 18.0+3.7 µg ml-1
- i.p. bioavailability (from AUC0-∞) ([1]; BALB/c mice, 50% polyethylene glycol/saline vehicle): 87%
- i.p. bioavailability (from AUC0-∞) ([1]; BALB/c mice, dimethyl sulphoxide vehicle): 113%
- peak whole plasma concentration (+2 s.e.) ([1]; BALB/c mice, 78 mg kg-1 i.p.): 36.0+2.5 µg ml-1
- peak whole plasma concentration (+2 s.e.) ([1]; BALB/c mice, 650 mg kg-1 i.p.): 105+15 µg ml-1
- blood/whole plasma concentration ratio, overall mean (s.e., n=16) ([1]; BALB/c mice, 650 mg kg-1 i.p. in arachis oil, 45-135 min): 116+4%
- whole plasma concentration remaining at 24 h ([1]; BALB/c mice, 650 mg kg-1 i.p., experiment of Figure 3): 15 µg/mL
- half-life ([1]; male, plasma, ip, BALB/c mice, 26 mg kg-1 i.p., suspension in 50% polyethylene glycol, read-out: elimination half-life (95% confidence limits)): 1.55 h
- half-life ([1]; male, plasma, ip, BALB/c mice, 68 mg kg-1 (so in the source) i.p., suspension in 50% polyethylene glycol, read-out: elimination half-life (95% confidence limits)): 1.6 h
- Tmax ([1]; male, plasma, ip, BALB/c mice, 650 mg kg-1 i.p.): 1 h
- Tmax ([1]; male, plasma, ip, BALB/c mice, 26 and 78 mg kg-1 i.p.): 0.25 to 0.5 h
- half-life ([1]; male, plasma, iv, BALB/c mice, 32.5 mg kg-1 i.v. in dimethyl sulphoxide, read-out: elimination half-life (95% confidence limits)): 1.98 h
- half-life ([1]; male, plasma, iv, BALB/c mice, 65 mg kg-1 i.v. in dimethyl sulphoxide, read-out: elimination half-life (95% confidence limits)): 1.95 h
- peak whole plasma concentration that would be produced ([1]; mice, 13 mg kg-1 i.p.): about 10 µg ml-1
- whole plasma concentration (dose-peak concentration curve, Figure 4) ([1]; mice, 26 mg kg-1 i.p.): 20 µg/mL
- whole plasma concentration [1, 4]: 30 µg/mL
- whole plasma concentration (dose-peak concentration curve, Figure 4) ([1]; mice, 650 mg kg-1 i.p.): 90 µg/mL
- whole plasma concentration remaining at 24 h ([1]; mice, 650 mg kg-1 i.p., some other experiments (undetectable)): < 0.2 µg/mL
- peak whole plasma concentration per administered mg kg-1 ([1]; mice, i.p. route, doses giving linear kinetics): 0.75 micrograms ml-1
- half-life ([1]; plasma, mice, summary value, read-out: elimination t1/2): 1.5 h
- metabolites detectable by HPLC with u.v. detection at 313 nm ([1]; plasma, urine and tissues of all species studied): no evidence of metabolites
- concentration in tumour homogenate (Figure 2 chromatogram) [2, 5]: 13500 ng/mL
- tumour concentration (Figure 2 chromatogram) [2, 5]: 54 µg/g
- tumour/whole plasma ratio (s.e., n=5) ([2]; EMT6 flank, experiment b, 650 mg kg-1 i.p., 45 min): 58+8%
- tumour/whole plasma ratio (s.e., n=5) ([2]; EMT6 flank, experiment b, 650 mg kg-1 i.p., 75 min): 70 + 5%
- tumour/whole plasma ratio (s.e., n=5) ([2]; EMT6 flank, experiment b, 650 mg kg-1 i.p., 105 min): 97 + 4%
- tumour/whole plasma ratio (s.e., n=5) ([2]; EMT6 flank, experiment b, 650 mg kg-1 i.p., 135 min): 88 + 9%
- tumour/whole plasma ratio (% ± s.e.) ([2]; EMT6 i.d. flank, BALB/c, Exp 2 (b): 650 mg kg-1 i.p., 45-135 min, n=20): 79 + 5%
- peak tumour level (s.e., n=4) ([2]; EMT6 i.d. flank, first experiment, 650 mg kg-1 i.p. in arachis oil): 55+11 µg g-1
- tumour/whole plasma ratio (% ± s.e.) ([2]; EMT6 i.m. leg, BALB/c, Exp 1 (c): 650 mg kg-1 i.p., 45-135 min, n=20): 75 + 5%
- tumour/whole plasma ratio (% ± s.e.) ([2]; EMT6 i.m. leg, BALB/c, Exp 2 (d): 650 mg kg-1 i.p., 45-135 min, n=20): 74+6%
- peak tumour level (s.e., n=5) ([2]; EMT6 i.m. leg, first experiment, 650 mg kg-1 i.p.): 130+7 µg g-1
- peak tumour level (s.e., n=5) ([2]; EMT6 i.m. leg, second experiment, 650 mg kg-1 i.p.): 84+14 µg g-1
- tumour/whole plasma ratio (% ± s.e.) ([2]; KHT i.m. leg, C3H/He, Exp 1 (e): 60 mg kg-1 i.p. priming + 15 hourly doses of 15 mg kg-1, 1-16 h, n=25): 99+3%
- tumour/whole plasma ratio (% ± s.e.) ([2]; KHT i.m. leg, C3H/He, Exp 2 (f): dosing as e omitting the dose at 1 h, 2-16 h, n=13): 90+ 3%
- tumour/whole plasma ratio (s.e., n=5) ([2]; KHT tumour, 1 h after single i.p. dose of 78 mg kg-1): 88+5%
- tumour/whole plasma ratio (s.e., n=5) ([2]; KHT tumour, 1 h after single i.p. dose of 260 mg kg-1): 88+2%
- steady-state concentration in tumour ([2]; KHT tumour, first experiment): 26 µg/g
- steady-state concentration in tumour ([2]; KHT tumour, second experiment): 32 µg/g
- range of mean plasma concentrations ([2]; Table II experiment a): 49 to 99 µg/mL
- range of mean plasma concentrations ([2]; Table II experiment b): 77 to 121 µg/mL
- range of mean plasma concentrations ([2]; Table II experiment c): 100 to 130 µg/mL
- range of mean plasma concentrations ([2]; Table II experiment d): 74 to 133 µg/mL
- range of mean plasma concentrations ([2]; Table II experiment e (multiple dose)): 25 to 47 µg/mL
- range of mean plasma concentrations ([2]; Table II experiment f (multiple dose)): 12 to 29 µg/mL
- Kp ([2]; male, BALB/c, mouse, EMT6 flank tumour / whole plasma, EMT6 flank tumours, read-out: overall tissue/whole plasma ratio): 0.69
- Kp ([2]; male, mouse, tumour (EMT6, intradermal, intraperitoneal), EMT6 i.d. flank, BALB/c, Exp 1 (a): 650 mg kg-1 i.p. single dose (arachis oil), 45-135 min, n=16, read-out: tumour/whole plasma ratio (% ± s.e.)): 0.59
- peak tumour concentration that would be produced ([2]; mice, 13 mg kg-1 i.p.): ~9 µg/g
- tumour concentration [2, 4]: 26 µg/g
- Kp ([2]; tumour (KHT and EMT6), transplantable mouse tumours (KHT and EMT6), read-out: tissue/whole plasma ratios, range): 0.59 to 0.99
- Kp ([2]; tumour / whole plasma, transplantable mouse tumours, read-out: steady-state tumour/whole plasma ratio (about)): ~0.9
- brain/whole plasma ratio (% ± s.e.) ([3]; Exp 1 (a), n=16): 61+5%
- tumour/brain ratio (% + s.e.) ([3]; Exp 1 (a), n=16): 120+33%
- brain/whole plasma ratio (% ± s.e.) ([3]; Exp 2 (b), n=20): 68+3%
- tumour/brain ratio (% + s.e.) ([3]; Exp 2 (b), n=20): 116+5%
- brain/whole plasma ratio (% ± s.e.) ([3]; Exp 3 (c), n=20): 76+4%
- tumour/brain ratio (% + s.e.) ([3]; Exp 3 (c), n=20): 99+7%
- brain/whole plasma ratio (s.e., n=5) ([3]; 45 min): 56+3%
- brain/whole plasma ratio (s.e., n=5) ([3]; 75 min): 69+3%
- brain/whole plasma ratio (s.e., n=5) ([3]; 105 min): 71+5%
- brain/whole plasma ratio (s.e., n=5) ([3]; 135 min): 75 +5%
- Kp ([3]; mice, discussion comparison with MISO, read-out: brain/whole plasma ratio): 0.68
- Kp ([3]; read-out: brain/whole plasma ratios, range of averages): 0.61 to 0.76

— article PMC1976805, “Preclinical pharmacokinetics of benznidazole” (British Journal of Cancer, 1984)
